Where a SMILES comes first, the peptide text is derived from it. Bridges are numbered along the chain shown (N, C = ends).
Columns and labels:
E. coli ProRS [1] = molecular target: T1, E. coli ProRS (Escherichia coli, UniProt P16659); experiment: ELSA of ProRS surrogate ligand; assay type: binding; conditions: self-competition
T1 sequence (P16659 whole entry, looked up): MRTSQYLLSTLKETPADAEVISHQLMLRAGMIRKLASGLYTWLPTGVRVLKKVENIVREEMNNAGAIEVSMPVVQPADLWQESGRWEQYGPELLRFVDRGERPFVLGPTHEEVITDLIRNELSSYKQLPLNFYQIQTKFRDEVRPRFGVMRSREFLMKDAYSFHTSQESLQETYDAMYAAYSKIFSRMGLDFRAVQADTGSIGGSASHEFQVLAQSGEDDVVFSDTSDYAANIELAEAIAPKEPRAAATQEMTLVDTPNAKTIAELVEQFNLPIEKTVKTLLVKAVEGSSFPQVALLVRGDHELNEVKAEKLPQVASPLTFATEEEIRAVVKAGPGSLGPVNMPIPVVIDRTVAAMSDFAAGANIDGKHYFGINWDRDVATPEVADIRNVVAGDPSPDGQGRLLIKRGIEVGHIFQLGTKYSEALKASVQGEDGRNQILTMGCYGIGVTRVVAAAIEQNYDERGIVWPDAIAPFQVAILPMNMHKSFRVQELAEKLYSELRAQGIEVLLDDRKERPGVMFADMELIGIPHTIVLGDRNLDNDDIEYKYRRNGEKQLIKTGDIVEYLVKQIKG
Procedure: (§1) Target protein was immobilized in microtiter wells by incubating 0.5-2.0 μg per well in 100 μl of 0.1 M NaHCO3 overnight at 4° C. […] During the 1 hour blocking period, the SA-AP:surrogate ligand conjugate was prepared by mixing 2 μg SA-AP and 50 pmol biotinylated surrogate ligand for each well of target protein. (This corresponds to a 1:1 ratio of biotinylated peptide to biotin binding sites.) The mixture was incubated at room temperature for 15-20 minutes and then diluted with Tris-buffered saline-TWEEN-20 detergent (TBST) 10 mM Tris-HCl, pH 8.0, 150 mM NaCl, 0.05% TWEEN-20 detergent such that there was 100 μl of conjugate per well. For lower concentrations of surrogate ligand, an unrelated biotinylated peptide was titrated in to keep the total amount of biotinylated peptide at 50 pmol/well and total SA-AP at 2 μg/well.
(§2) After blocking, the wells were washed once with 200 μl TBST. The surrogate ligand:SA-AP conjugate was then added (100 μl/well) and incubated at room temperature for 2 hours. The wells were then washed 5 times with 300 μl TBST using a BioRad 1575 Immunowash plate washer. The assay was developed by adding 100 μl of pNPP and incubating at room temperature for 5-10 minutes. The absorbance was read at 405 nm.
(§3) A peptide corresponding to the most often isolated phage was synthesized and used in an ELSA as described in example 1. […]

E. coli ProRS [2] = molecular target: T2, E. coli ProRS (Escherichia coli, UniProt P16659); experiment: ELSA of ProRS surrogate ligand; assay type: binding; conditions: tested on ProRS, GST-src SH3, GST, GST-UL44, TyrRS, GST-MDM2
Procedure: as §1, §2, §3

E. coli ProRS [3] = molecular target: T2, E. coli ProRS; experiment: ProRS charging assay; assay type: biochemical
Procedure: One question that could be answered with peptides designed from these phage is whether or not they are directed to random regions on the target protein or if they target active sites and regions of other biological interactions. The peptides used in the above ELSAs were added to a charging assay to assess its affects on enzymatic activity of the target.

TyrRS = TyrRS (Haemophilus influenzae, UniProt P43836); experiment: ELSA of TyrRS surrogate ligand; assay type: binding; conditions: tested on TyrRS, GST-src SH3, GST, GST-UL44, GST-MDM2, ProRS
Procedure: as §1
as §2, with “nm. […]” for “nm.”
The ability of the compound to inhibit the binding of the TyrRS1B peptide to TyrRS was determined. […]

Sequence of TyrRS (P43836 whole entry): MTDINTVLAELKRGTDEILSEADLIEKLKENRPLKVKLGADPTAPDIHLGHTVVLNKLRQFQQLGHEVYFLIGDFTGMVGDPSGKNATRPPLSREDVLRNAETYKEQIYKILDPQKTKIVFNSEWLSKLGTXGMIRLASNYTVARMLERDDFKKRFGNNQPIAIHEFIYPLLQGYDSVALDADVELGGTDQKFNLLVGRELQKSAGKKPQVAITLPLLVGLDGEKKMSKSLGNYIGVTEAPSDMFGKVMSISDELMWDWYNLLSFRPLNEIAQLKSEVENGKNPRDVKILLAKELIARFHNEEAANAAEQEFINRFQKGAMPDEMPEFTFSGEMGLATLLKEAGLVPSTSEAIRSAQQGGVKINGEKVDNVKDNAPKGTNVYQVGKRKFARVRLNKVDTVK

S R V C A I W P D L D G C S R (SRVCAIWPDLDGCSR) [non-biotinylated ProRS peptide]
disruption of biotinylated ProRS peptide binding (E. coli ProRS [1]): disrupted in a dose dependent fashion

CC[C@H](C)[C@@H]1NC(=O)[C@H](C)NC(=O)[C@@H](NC(=O)[C@@H](NC(=O)[C@H](CCCNC(=N)N)NC(=O)[C@@H](N)CO)C(C)C)CSSC[C@@H](C(=O)N[C@@H](CO)C(=O)N[C@@H](CCCNC(=N)N)C(=O)O)NC(=O)CNC(=O)[C@H](CC(=O)O)NC(=O)[C@H](CC(C)C)NC(=O)[C@H](CC(=O)O)NC(=O)[C@@H]2CCCN2C(=O)[C@H](Cc2c[nH]c3ccccc23)NC1=O [ProRS BioKey, S R V C A I W P D L D G C S R] (H-SRVCAIWPDLDGCSR-OH; disulfide 4-13; N-terminus and C-terminus assumed)
specificity of binding of biotinylated peptide (E. coli ProRS [2]): specific for E. coli ProRS | time of preincubation with the peptide for 50% inhibition (E. coli ProRS [3]; 530 μM peptide): about 1.5 hours | mode of inhibition (E. coli ProRS [3]; charging assay): competitive in respect to proline

L Y S W P D E Q Y E R P (LYSWPDEQYERP) [Peptide 1]
specificity of binding of biotinylated peptide (TyrRS): binds to TyrRS specifically
